# Results taken from patent US7880007B2, “Bicyclic substituted phenyl piperidine modulators of muscarinic receptors” (Vertex Pharmaceuticals Incorporated, priority 2004, dated 2011).
# Tests used:
# Type in all cases: cell-based
# M1 muscarinic receptor = target: T1, M1 muscarinic receptor (Homo sapiens, UniProt P11229); experiment: Functional mobilization of intracellular calcium (FLIPR), M1-CHO cells; settings: for Emax / M1 Efficacy: 100% efficacy = maximum response obtained with the Carbachol control; for M1 Activity: M1-CHO cells, calcium mobilization (FLIPR)
# T1 construct: expressed in transfected cells; host or cells: CHO (M1-CHO)
# T1 sequence (P11229 1-460): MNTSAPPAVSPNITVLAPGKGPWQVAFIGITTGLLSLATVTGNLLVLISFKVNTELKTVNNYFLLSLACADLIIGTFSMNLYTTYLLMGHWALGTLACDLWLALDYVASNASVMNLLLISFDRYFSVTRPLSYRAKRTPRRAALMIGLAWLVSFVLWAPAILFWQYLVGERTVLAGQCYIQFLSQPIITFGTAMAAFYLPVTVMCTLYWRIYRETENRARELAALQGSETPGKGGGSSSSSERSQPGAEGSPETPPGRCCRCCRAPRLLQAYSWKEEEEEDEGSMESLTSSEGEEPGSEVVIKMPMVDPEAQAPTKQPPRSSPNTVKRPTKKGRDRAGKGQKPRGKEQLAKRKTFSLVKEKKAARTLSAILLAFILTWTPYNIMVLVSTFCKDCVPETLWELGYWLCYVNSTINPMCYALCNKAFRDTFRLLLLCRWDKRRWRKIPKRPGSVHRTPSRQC
# Outline: (§1)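 Calcium mobilisation read by FLIPR over 60 s (ex 488/em 540 nm) in recombinant muscarinic CHO lines loaded with calcium dye plus 1 mM probenecid. Compounds tested as agonists alone, or as inhibitors against EC80 carbachol after 15 min pre-incubation or co-addition; 0.5% DMSO; efficacy scaled to carbachol maximal response.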
# M2 muscarinic receptor = target: T2, M2 muscarinic receptor (Homo sapiens, UniProt P08172); experiment: Functional mobilization of intracellular calcium (FLIPR), M2-CHO cells; settings: for Emax / M2 Efficacy: 100% efficacy = maximum response obtained with the Carbachol control; for M2 Activity: M2-CHO cells, calcium mobilization (FLIPR)
# T2 construct: expressed in transfected cells; host or cells: CHO (M2-CHO)
# T2 sequence (P08172 1-466): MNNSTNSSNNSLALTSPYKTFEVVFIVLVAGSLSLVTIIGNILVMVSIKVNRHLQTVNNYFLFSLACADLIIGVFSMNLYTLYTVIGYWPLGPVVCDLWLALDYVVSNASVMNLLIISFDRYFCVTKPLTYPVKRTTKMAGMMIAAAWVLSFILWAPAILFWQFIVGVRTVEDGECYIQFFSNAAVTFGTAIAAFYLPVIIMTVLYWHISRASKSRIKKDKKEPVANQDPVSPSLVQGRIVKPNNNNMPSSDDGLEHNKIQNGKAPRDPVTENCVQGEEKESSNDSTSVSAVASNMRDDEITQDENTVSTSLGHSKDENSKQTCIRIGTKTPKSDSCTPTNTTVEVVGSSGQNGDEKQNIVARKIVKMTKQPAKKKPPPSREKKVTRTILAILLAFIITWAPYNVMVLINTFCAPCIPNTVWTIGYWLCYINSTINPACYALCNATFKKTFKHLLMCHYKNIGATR
# Outline: as §1
# M3 muscarinic receptor = target: T3, M3 muscarinic receptor (Homo sapiens, UniProt P20309); experiment: Functional mobilization of intracellular calcium (FLIPR), M3-CHO cells; settings: for Emax / M3 Efficacy: 100% efficacy = maximum response obtained with the Carbachol control; for M3 Activity: M3-CHO cells, calcium mobilization (FLIPR)
# T3 construct: expressed in transfected cells; host or cells: CHO (M3-CHO)
# Outline: as §1
# M4 muscarinic receptor = target: T4, M4 muscarinic receptor (Homo sapiens, UniProt P08173); experiment: Functional mobilization of intracellular calcium (FLIPR), M4-CHO cells; settings: for Emax / M4 Efficacy: 100% efficacy = maximum response obtained with the Carbachol control; for M4 Activity: M4-CHO cells, calcium mobilization (FLIPR)
# T4 construct: expressed in transfected cells; host or cells: CHO (M4-CHO)
# T4 sequence (P08173 1-479): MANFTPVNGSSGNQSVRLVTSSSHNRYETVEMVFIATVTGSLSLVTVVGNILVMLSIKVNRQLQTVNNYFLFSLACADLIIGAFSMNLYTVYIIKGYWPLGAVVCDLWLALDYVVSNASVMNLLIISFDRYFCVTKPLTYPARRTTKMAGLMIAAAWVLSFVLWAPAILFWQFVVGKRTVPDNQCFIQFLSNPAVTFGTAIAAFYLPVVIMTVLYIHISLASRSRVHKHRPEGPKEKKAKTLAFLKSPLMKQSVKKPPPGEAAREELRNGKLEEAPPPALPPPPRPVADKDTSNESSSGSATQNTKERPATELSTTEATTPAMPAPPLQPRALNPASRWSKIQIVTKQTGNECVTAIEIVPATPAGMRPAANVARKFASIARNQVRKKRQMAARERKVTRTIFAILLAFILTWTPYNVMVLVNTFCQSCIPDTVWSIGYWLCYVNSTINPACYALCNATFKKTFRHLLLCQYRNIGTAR
# Outline: as §1
# T3 sequence (P20309 whole entry): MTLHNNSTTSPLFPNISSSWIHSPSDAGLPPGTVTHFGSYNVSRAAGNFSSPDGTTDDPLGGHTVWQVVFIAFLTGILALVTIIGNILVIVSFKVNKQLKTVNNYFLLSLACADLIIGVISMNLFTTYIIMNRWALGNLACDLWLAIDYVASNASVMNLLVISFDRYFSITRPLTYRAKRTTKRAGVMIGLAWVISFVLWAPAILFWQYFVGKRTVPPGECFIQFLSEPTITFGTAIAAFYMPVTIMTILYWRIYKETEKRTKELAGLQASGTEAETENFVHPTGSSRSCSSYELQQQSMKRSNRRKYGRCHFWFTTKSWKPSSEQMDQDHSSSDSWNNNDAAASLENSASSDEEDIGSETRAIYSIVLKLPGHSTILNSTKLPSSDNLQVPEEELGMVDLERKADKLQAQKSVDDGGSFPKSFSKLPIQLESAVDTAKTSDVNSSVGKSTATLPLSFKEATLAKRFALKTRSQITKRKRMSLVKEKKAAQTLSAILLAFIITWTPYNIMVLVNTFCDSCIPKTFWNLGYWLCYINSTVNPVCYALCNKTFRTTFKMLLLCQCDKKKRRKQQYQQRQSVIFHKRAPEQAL
Structure (SMILES),Emax (M1 muscarinic receptor) [%],M1 Activity (M1 muscarinic receptor),Emax (M2 muscarinic receptor) [%],M2 Activity (M2 muscarinic receptor),Emax (M3 muscarinic receptor) [%],M3 Activity (M3 muscarinic receptor),Emax (M4 muscarinic receptor) [%],M4 Activity (M4 muscarinic receptor),M1 Efficacy (M1 muscarinic receptor),M2 Efficacy (M2 muscarinic receptor),M3 Efficacy (M3 muscarinic receptor),M4 Efficacy (M4 muscarinic receptor)
COc1ccc(F)cc1C1CCN([C@@H]2C[C@H]3CC[C@H]2C3)CC1 [Compound 354],25 to 100,+++ (activity was measured to be less than 1.0 μM),25 to 100,++ (activity was measured to be from 1.0 μM to 5.0 μM),< 25,+ (activity was measured to be greater than 5.0 μM),25 to 100,+++ (activity was measured to be less than 1.0 μM),–,–,–,–
CCOC(=O)N1C2CCC1CC(N1CCC(c3ccccc3OC(F)(F)F)CC1)C2 (stereo not shown) [Compound 355],25 to 100,+++ (activity was measured to be less than 1.0 μM),< 25,+ (activity was measured to be greater than 5.0 μM),< 25,+ (activity was measured to be greater than 5.0 μM),25 to 100,+++ (activity was measured to be less than 1.0 μM),–,–,–,–
COc1ccc(Cl)cc1C1(F)CCN(C2CC3CCC(C3)C2)CC1 (stereo not shown) [Compound 356],25 to 100,+ (activity was measured to be greater than 5.0 μM),25 to 100,+ (activity was measured to be greater than 5.0 μM),< 25,+ (activity was measured to be greater than 5.0 μM),25 to 100,+++ (activity was measured to be less than 1.0 μM),–,–,–,–
COc1ccc(-c2ccc(S(C)(=O)=O)cc2)cc1C1CCN(C2CCOCC2)CC1 [Compound 357],< 25,+ (activity was measured to be greater than 5.0 μM),< 25,+ (activity was measured to be greater than 5.0 μM),< 25,+ (activity was measured to be greater than 5.0 μM),< 25,+ (activity was measured to be greater than 5.0 μM),–,–,–,–
Cc1ccc(C(F)(F)F)cc1C1CCN(C2CCOCC2)CC1 [Compound 358],25 to 100,++ (activity was measured to be from 1.0 μM to 5.0 μM),25 to 100,+ (activity was measured to be greater than 5.0 μM),< 25,+ (activity was measured to be greater than 5.0 μM),25 to 100,++ (activity was measured to be from 1.0 μM to 5.0 μM),–,–,–,–
COc1ccc(-c2ccc(C(=O)N(C)C)cc2)cc1C1CCN([C@H]2C[C@H]3CC[C@H]2C3)CC1 [Compound 360],< 25,+ (activity was measured to be greater than 5.0 μM),< 25,+ (activity was measured to be greater than 5.0 μM),< 25,+ (activity was measured to be greater than 5.0 μM),25 to 100,++ (activity was measured to be from 1.0 μM to 5.0 μM),–,–,–,–
COc1ccc(-c2ccc(C(C)(C)C#N)cc2)cc1C1CCN(C2CC3CCC(C3)C2)CC1 (stereo not shown) [Compound 361],25 to 100,+ (activity was measured to be greater than 5.0 μM),< 25,+ (activity was measured to be greater than 5.0 μM),< 25,+ (activity was measured to be greater than 5.0 μM),25 to 100,+ (activity was measured to be greater than 5.0 μM),–,–,–,–
CCCON=C1CCC(N2CCC(c3cc(Cl)ccc3OC)CC2)CC1 (stereo not shown) [Compound 362],–,+++ (activity was measured to be less than 1.0 μM),–,++ (activity was measured to be from 1.0 μM to 5.0 μM),–,+ (activity was measured to be greater than 5.0 μM),–,+++ (activity was measured to be less than 1.0 μM),++ (efficacy was calculated to be from 100% to 25%),++ (efficacy was calculated to be from 100% to 25%),+ (efficacy was calculated to be less than 25%),++ (efficacy was calculated to be from 100% to 25%)
CCOC(=O)N1[C@@H]2CC[C@@H]1CC(N1CCC(c3cc(C)ccc3OC)CC1)C2 (stereo partly shown) [Compound 363],25 to 100,+++ (activity was measured to be less than 1.0 μM),25 to 100,+++ (activity was measured to be less than 1.0 μM),25 to 100,+ (activity was measured to be greater than 5.0 μM),25 to 100,+++ (activity was measured to be less than 1.0 μM),–,–,–,–
CCOC(=O)N1CCC(CN2CCC(c3ccc(F)cc3OC)CC2)CC1 [Compound 364],25 to 100,+++ (activity was measured to be less than 1.0 μM),< 25,+ (activity was measured to be greater than 5.0 μM),< 25,+ (activity was measured to be greater than 5.0 μM),25 to 100,+++ (activity was measured to be less than 1.0 μM),–,–,–,–
CCCC1CCC(N2CCC(F)(c3cc(Cl)ccc3OC)CC2)CC1 (stereo not shown) [Compound 365],25 to 100,+ (activity was measured to be greater than 5.0 μM),25 to 100,+ (activity was measured to be greater than 5.0 μM),< 25,+ (activity was measured to be greater than 5.0 μM),25 to 100,+ (activity was measured to be greater than 5.0 μM),–,–,–,–
COc1ccc(-c2cccc(F)c2)cc1C1CCN([C@H]2C[C@H]3CC[C@H]2C3)CC1 [Compound 366],< 25,+ (activity was measured to be greater than 5.0 μM),< 25,+ (activity was measured to be greater than 5.0 μM),< 25,+ (activity was measured to be greater than 5.0 μM),25 to 100,+ (activity was measured to be greater than 5.0 μM),–,–,–,–
COc1ccc(Cl)cc1C1(F)CCN([C@H]2C[C@H]3CC[C@H]2C3)CC1 [Compound 367],< 25,+ (activity was measured to be greater than 5.0 μM),< 25,+ (activity was measured to be greater than 5.0 μM),< 25,+ (activity was measured to be greater than 5.0 μM),< 25,+ (activity was measured to be greater than 5.0 μM),–,–,–,–
CCOC(=O)N1CCC(N2CCC(F)(c3cc(Cl)ccc3OC)CC2)CC1 [Compound 368],–,++ (activity was measured to be from 1.0 μM to 5.0 μM),–,++ (activity was measured to be from 1.0 μM to 5.0 μM),–,+ (activity was measured to be greater than 5.0 μM),–,+++ (activity was measured to be less than 1.0 μM),++ (efficacy was calculated to be from 100% to 25%),++ (efficacy was calculated to be from 100% to 25%),+ (efficacy was calculated to be less than 25%),++ (efficacy was calculated to be from 100% to 25%)
